Test [1] concerns G6B-b tyrosine phosphorylation. The test can be described thus: G6B-b tyrosine phosphorylation in washed human platelets (4G10 staining). Type of test: cell-based. Particulars: for state of G6B-b phosphorylation: PP2 5 µM, PP3 5 µM or pervanadate, 10 minutes; for G6B-b tyrosine phosphorylation: 1 µg/ml CRP, 5 minutes, 4G10 staining, n = 4. As for the experimental part:
One microgram of antibody was bound to 10 µl of Protein A-sepharose (20 µl of a 50% slurry), in a final volume of 100 µl PBS, by incubation on a rotating wheel for 90 minutes at 4°C. Washed human platelets were incubated with either Tyrodes, 5 µM PP2, 5 µM PP3 or pervanadate for 10 minutes, after which they were pelleted and lysed in DP lysis buffer (20 mM Tris pH 7.5, 150 mM NaCl, 5 mM NaOV4, 1× Complete Protease Inhibitor (Roche) and 5% w/v n-Dodecyl-β-D-maltoside (Calbiochem)) such that each IP sample received 4×10^8 platelets in a final volume of 100 µl DP lysis buffer. Samples were mixed on a rotating wheel at 4°C for 1 hour. Samples were washed once in 200 µl DP lysis buffer and twice in 1 ml PBS prior to boiling in Laemmli buffer for 5 minutes.
We wanted to determine whether SHP-2 could associate with the receptor in human platelets as this interaction could relate to receptor function and regulation of GPVI signalling. […] In the absence of receptor agonists, we carried out co-immunoprecipitation experiments in platelet lysates treated with the SFK inhibitor, PP2, its non-active analogue, PP3, or the tyrosine phosphatase inhibitor, pervanadate. […] Under these conditions, isolation of […] by immunoprecipitation was robust (Figure 1B, top panel).
(A) Washed human platelets were incubated under stirring, but non-aggregating, conditions with the SFK inhibitor, PP2, or DMSO, prior to the addition of 1 µg/ml CRP or Tyrodes buffer. Samples were collected after 5 minutes. Tyrosine phosphorylation was detected by 4G10 staining (top panel, n = 4). […] (B) G6B-b co-immunoprecipitates with […] in pervanadate-treated washed human platelets.

Test [2] deals with T1, N-terminal SH2 domain of SHP-2 (Homo sapiens, UniProt Q06124).
T1 construct: SHP-2 (N)SH2 (His-tag) (OMC #3912); His-tag; host or cells: E. coli BL21(DE3)
T1 sequence (Q06124 6-102 limits assumed): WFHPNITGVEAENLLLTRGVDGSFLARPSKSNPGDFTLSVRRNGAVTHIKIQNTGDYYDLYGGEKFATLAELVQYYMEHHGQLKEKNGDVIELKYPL
Put plainly: SPR (BIAcore 3000), single N-terminal SH2 domain of SHP-2. Type of test: binding. The following applies: HBS pH 7.4, 37°C, 10 µl/min. As for the experimental part:
(§1) These proteins were expressed in BL21(DE3) cells (Invitrogen) induced with 1 mM IPTG for 4 hours at 37°C. Bacteria were pelleted and washed in PBS/0.5 M NaCl prior to sonication in PBS/0.5 M NaCl, in the presence of protease inhibitor cocktail (Complete, EDTA-free, Roche). Soluble and insoluble fractions were separated by centrifugation at 30,000 g for 60 minutes. Soluble fractions containing tagged proteins were incubated for 1 hour at 4°C with end-over-end mixing in the presence of washed Ni-Sepharose (GE Lifesceinces, Little Chalfont, U.K.) supplemented with 40 mM imidazole or Amylose resin (NEB, Herts, U.K). Proteins were eluted according to the manufacturer's instructions and purified by size exclusion chromatography on an AKTApurifier (GE Lifesciences, Little Chalfont, U.K).
Experiments were conducted on a BIAcore™ 3000 in HBS buffer (0.01 M HEPES, pH 7.4, containing 0.15 M NaCl, 3 mM EDTA, and 0.005% v/v P-20, GE Life Sciences, Amersham, UK). Streptavidin was coupled to a research grade CM5 chip (GE Life Sciences, Amersham, UK) as previously described, [13]. Protein-peptide interactions were carried out a rate of 10 µl/min at a constant temperature of 37°C to more accurately reflect physiological conditions. Biotinylated peptides were bound to the streptavidin-coated CM5 chips at 37°C to between 25–50 RU [14]. Purified monomeric SH2 domains were passed over the immobilised peptides at a range of concentrations. Anti-phosphotyrosine monoclonal antibody (Sigma, Poole, U.K.) was passed over the chip to saturation at the end of each experiment to verify peptide coverage on the chip. Binding affinities for the single ITIM/ITSM peptides were determined by plotting equilibrium binding measurements (RU) against SH2 domain protein concentration (Origin 8, OriginLab, MA, USA). KD was defined as the concentration of SH2 protein that gave half maximal binding to the peptide. […] KD was determined as Koff/Kon, which were determined using both GraphPad Prism 5.0 (GraphPad, La Jolla, CA, USA) and BIAevaluation Software (GE Life Sciences, Amersham,UK).
(Surface plasmon resonance follows binding to a sensor surface in real time, without labels.)

In test [3] the test system is washed human platelets (collagen). The test can be described thus: Light transmission aggregometry of TAT-peptide-loaded platelets, collagen. Type of test: cell-based. The following applies: vehicle (DMSO) control; light transmission aggregometry. As for the experimental part:
(§2) Whole blood was taken from healthy volunteers and collected into 50 ml syringes containing 5 ml acid citrate-dextrose (ACD) in accordance with procedures approved by the Local Research Ethics Committee (Ref: 07/Q1603/17). Platelet-rich plasma (PRP) was isolated by centrifugation at 200 g for 10 minutes at room temperature. PRP was pooled and 10 µg PGI2 was added before centrifugation at 1000 g for 10 minutes at room temperature. Platelets were resuspended in 1 ml Tyrodes buffer (134 mM NaCl, 0.34 mM Na2HPO4, 2.9 mM KCl, 12 mM NaHCO3, 20 mM HEPES, 5 mM glucose, 1 mM MgCl2, pH 7.3) pre-warmed to 30°C and 150 µl ACD. The volume was adjusted to 25 ml with Tyrodes buffer, followed by 3 ml ACD and 1.25 µg PGI2. Cells were centrifuged at 1000 g for 10 minutes at room temperature and the resultant cell pellet was resuspended in 1 ml pre-warmed Tyrodes buffer before adjusting the volume to a final cell density of 4×10^8 cells/ml (aggregations) or 2×10^9 cells/ml (peptide pull downs). Where appropriate, 1 mM EGTA, 10 µM indomethacin and 2 U/ml apyrase were added to inhibit aggregations (referred to as non-aggregating conditions).
(§3) Fluorescein-labelled, TAT-G6B-b peptides were synthesised by Peptide Protein Research Ltd (Hampshire, U.K.). Peptides were either unphosphorylated, or phosphorylated at both ITIMs as follows: Dual phosphorylated peptide – FLUO- […]*[…]*AVVV or unphosphorylated control peptide (lacking tyrosine phosphorylation) - FLUO- […]. TAT sequences are underlined and phosphorylated tyrosines marked with an asterisk. Peptides were loaded into washed platelets by incubation with 10 µM peptide for 15 minutes at 30°C, after which they were assessed by light transmission aggregometry. Peptide loading conditions were optimised and verified by flow cytometry.
(§4) Washed human platelets were loaded with TAT-G6B-b peptides (either dual phosphorylated or unphosphorylated) and changes in CRP efficacy determined by light transmission aggregometry. […] Thrombin-mediated activation was unaffected (data not shown). […] Peptide loading was verified by flow cytometry (Figure 9C and 9D.

For test [4], the system named is G6B-b dual phosphopeptide. Put plainly: SPR (BIAcore 3000) of SHP-1/SHP-2 tandem SH2 domains over immobilised G6B-b phosphopeptide. Particulars: for Koff / Kd: HBS pH 7.4, 37°C, 50 µl/min; for Koff: Prism 5; for Kd: KD = Koff/Kon. Type of test: binding, human. As for the experimental part:
Experiments were conducted on a BIAcore™ 3000 in HBS buffer (0.01 M HEPES, pH 7.4, containing 0.15 M NaCl, 3 mM EDTA, and 0.005% v/v P-20, GE Life Sciences, Amersham, UK). Streptavidin was coupled to a research grade CM5 chip (GE Life Sciences, Amersham, UK) as previously described, [13]. Protein-peptide interactions were carried out a rate of 10 µl/min at a constant temperature of 37°C to more accurately reflect physiological conditions. Biotinylated peptides were bound to the streptavidin-coated CM5 chips at 37°C to between 25–50 RU [14]. Purified monomeric SH2 domains were passed over the immobilised peptides at a range of concentrations. Anti-phosphotyrosine monoclonal antibody (Sigma, Poole, U.K.) was passed over the chip to saturation at the end of each experiment to verify peptide coverage on the chip. Binding affinities for the single ITIM/ITSM peptides were determined by plotting equilibrium binding measurements (RU) against SH2 domain protein concentration (Origin 8, OriginLab, MA, USA). KD was defined as the concentration of SH2 protein that gave half maximal binding to the peptide. For the 60-mer peptides, SH2 domains were passed over the chip surface at 50 µl/min. KD was determined as Koff/Kon, which were determined using both GraphPad Prism 5.0 (GraphPad, La Jolla, CA, USA) and BIAevaluation Software (GE Life Sciences, Amersham,UK).
Previous studies have shown that using single phosphomotifs (isolated from sequences in which they may exist in tandem) and single SH2 domains can be misleading, [16]. We, therefore, assessed phosphatase-G6B-b interactions in more detail using the tandem SH2 domains of both SHP-2 (Figure 4A) and SHP-1 (Figure 4B). We kinetically determined the binding affinity (KD = koff/kon) by SPR at physiological temperatures.

A further test deals with endogenous G6B-b. The test can be described thus: Pull down of endogenous G6B-b from platelet lysate with purified SH2 domains. Type of test: binding. The following applies: washed human platelet lysates activated with CRP or thrombin. As for the experimental part: as §1, with “Proteins were eluted according to the manufacturer's instructions and purified by size exclusion chromatography on an AKTApurifier (GE Lifesciences, Little Chalfont, U.K).” left out
Based on this study, the N-terminal SH2 domains of both SHP-1 and SHP-2 should preferentially bind to the ITIM (central pY at position 211) while the C-terminal domains should associate with the ITSM (pY at position 237). […] The N-terminal SH2 domain of SHP-1 was insoluble and it was not possible to purify sufficient quantities for binding studies. […]
(A) Peptide associated material was isolated from pre-cleared lysates separated on 4–12% NuPage Bis-Tris gels; proteins identified by Western Blotting (representative blots, n = 3). […] Bound material was separated from unbound material by SDS-PAGE and quantified (n = 3, SEM, ** denotes p<0.01, * denotes p<0.05). […]

The test system of test [5] is washed human platelets (CRP). Put plainly: Light transmission aggregometry of TAT-peptide-loaded platelets, CRP. The following applies: vehicle (DMSO) control; light transmission aggregometry. Type of test: cell-based. As for the experimental part: as §2, §3, §4

Where two headings read alike, the source gives them in different places. Where no end group is shown, it is not given here. [ ]: non-standard residue; d: D form. pY = N[C@@H](Cc1ccc(OP(=O)(O)O)cc1)C(=O)O

As to pervanadate, the “state of G6B-b phosphorylation” value in test [1] was “maximal phosphorylation”.
Take `CC(C)(C)n1nc(-c2ccc(Cl)cc2)c2c(N)ncnc21` [PP2]: in test [1], the “G6B-b tyrosine phosphorylation” value is on record as “reduced the G6B-b tyrosine phosphorylation in response to CRP” and the “state of G6B-b phosphorylation” value is “non-phosphorylation”.
As usually defined, the Kd is the constant that tells how readily two partners part at equilibrium. As to “PLVKTEPQRPVKEEEPKIPGDLDQEPSLLYADLDHLALSRPRRLSTADPADASTI[pY]AVVV [pY237]”, the Kd in test [2] (read-out: KD, estimated by fixing maximum binding) is 10000 nM.
With collagen [reference compound], the “EC50 of collagen, vehicle control platelets” value in test [3] is 0.4 µg/mL.
Regarding “SHP-1: SHP-1 (N+C)SH2 domains, recombinant”, the Koff turned out to be 0.0104 s⁻¹ in test [4] (tandem SH2 domains 0.1 nM); 0.01106 s⁻¹ in test [4] (tandem SH2 domains 1 nM); 0.01141 s⁻¹ in test [4] (tandem SH2 domains 10 nM); 0.01025 s⁻¹ in test [4] (tandem SH2 domains 100 nM); 0.00892 s⁻¹ in test [4] (tandem SH2 domains 1000 nM). Moreover, the Kd in test [4] (tandem SH2 domains 0.1 nM) turned out to be 43.3 nM; in test [4] (tandem SH2 domains 1 nM), 42.5 nM; in test [4] (tandem SH2 domains 10 nM), 20.3 nM; in test [4] (tandem SH2 domains 100 nM), 32 nM. For the same compound, the “isolation of endogenous G6B-b” value in the test on endogenous G6B-b is “able to isolate endogenous G6B-b from platelet lysate”.
Take “collagen-related peptide [CRP, reference compound]”: the “EC50 of CRP, vehicle control platelets” value in test [5] turned out to be 0.4 µg/mL.
Take `Nc1ncnc2c1cnn2-c1ccccc1` [PP3]: in test [1], the “G6B-b tyrosine phosphorylation” value is “no effect on tyrosine phosphorylation” and the “state of G6B-b phosphorylation” value was “partial/sub-maximal”.
Take “SHP-2: SHP-2 (N+C)SH2 domains, recombinant”: in test [4] (SPR, dual phosphopeptide), the “fold higher binding affinity of SHP-2 tandem SH2 domains than single N(SH2) domain” value is reported as “approximately 200 fold”. Moreover, the Koff in test [4] (tandem SH2 domains 0.1 nM) came out at 0.0720 s⁻¹; in test [4] (tandem SH2 domains 1 nM) it was 0.1660 s⁻¹; in test [4] (tandem SH2 domains 10 nM), 0.0206 s⁻¹; in test [4] (tandem SH2 domains 100 nM), 0.0144 s⁻¹; in test [4] (tandem SH2 domains 1000 nM), 0.0106 s⁻¹. Moreover, the Kd worked out at 0.474 nM in test [4] (tandem SH2 domains 0.1 nM); 0.624 nM in test [4] (tandem SH2 domains 1 nM); 0.145 nM in test [4] (tandem SH2 domains 10 nM); 0.528 nM in test [4] (tandem SH2 domains 100 nM); 0.634 nM in test [4] (tandem SH2 domains 1000 nM). Moreover, the “isolation of endogenous G6B-b” value in the test with endogenous G6B-b is “able to isolate G6B-b from platelet lysate”.
Regarding “PLVKTEPQRPVKEEEPKIPGDLDQEPSLL[pY]ADLDHLALSRPRRLSTADPADASTIYAVVV [pY211]”, the Kd in test [2] (equilibrium binding, single site fitting, read-out: KD) was found to be 110 nM.

Values taken from PMC3501490 (PLoS ONE, 2012).
